Reference: the NIST ThermoML archive (doi:10.1016/j.jct.2019.05.015)
Values joined by “and” are separate entries in the source; they are usually repeats but may differ in a detail not shown here. Identical values can stand only once. Numbers after ± are expanded uncertainties. Blank lines part the entries; values can stand above or below the compound they belong to.

Tests used:
[1] = molar heat capacity at constant pressure; settings: 101.33 kPa, DSC
[2] = Molar enthalpy of transition or fusion; settings: Crystal; DSC
[3] = for Normal melting temperature: Crystal, DTA; for Glass transition temperature: DSC

Compound: Oc1cccc(O)c1 [1,3-benzenediol]
molar heat capacity at constant pressure ([1]; 233 K, Crystal): 103.9 ± 4.2 J/K/mol | molar heat capacity at constant pressure ([1]; 253 K, Crystal): 114.4 ± 4.6 J/K/mol | molar heat capacity at constant pressure ([1]; 273 K, Crystal): 124.9 ± 4.9 J/K/mol | molar heat capacity at constant pressure ([1]; 293 K, Crystal): 135.3 ± 5.3 J/K/mol | molar heat capacity at constant pressure ([1]; 303 K, Metastable liquid): 237.2 ± 9.7 J/K/mol | molar heat capacity at constant pressure ([1]; 313 K, Crystal): 145.8 ± 5.7 J/K/mol | molar heat capacity at constant pressure ([1]; 323 K, Metastable liquid): 245.8 ± 10 J/K/mol | molar heat capacity at constant pressure ([1]; 333 K, Crystal): 156.3 ± 6.1 J/K/mol | molar heat capacity at constant pressure ([1]; 343 K, Metastable liquid): 254.3 ± 10 J/K/mol | molar heat capacity at constant pressure ([1]; 363 K, Metastable liquid): 262.9 ± 11 J/K/mol | Molar enthalpy of transition or fusion [2]: 4.82 ± 0.112 kcal/mol | Normal melting temperature [3]: 109.1 ± 0.4 °C

Compound: Nc1ccc(Cl)cc1 [4-chlorobenzenamine]
Molar enthalpy of transition or fusion [2]: 4.71 ± 0.196 kcal/mol | Normal melting temperature [3]: 70 ± 0.4 °C

Compound: Nc1ccc2ccccc2c1 [2-naphthalenamine]
Molar enthalpy of transition or fusion [2]: 5.32 ± 0.134 kcal/mol | Normal melting temperature [3]: 109.5 ± 0.4 °C

Compound: Nc1cccc(N)c1 [1,3-benzenediamine]
molar heat capacity at constant pressure ([1]; 223 K, Crystal): 108.9 ± 5 J/K/mol | molar heat capacity at constant pressure ([1]; 243 K, Crystal): 121.4 ± 5.6 J/K/mol | molar heat capacity at constant pressure ([1]; 253 K, Metastable liquid): 207.5 ± 8.1 J/K/mol | molar heat capacity at constant pressure ([1]; 263 K, Crystal): 133.8 ± 6 J/K/mol | molar heat capacity at constant pressure ([1]; 273 K, Metastable liquid): 213.4 ± 8.3 J/K/mol | molar heat capacity at constant pressure ([1]; 283 K, Crystal): 146.2 ± 6.5 J/K/mol | molar heat capacity at constant pressure ([1]; 293 K, Metastable liquid): 219.3 ± 8.5 J/K/mol | molar heat capacity at constant pressure ([1]; 303 K, Crystal): 158.7 ± 7 J/K/mol | molar heat capacity at constant pressure ([1]; 313 K, Metastable liquid): 225.2 ± 8.7 J/K/mol | molar heat capacity at constant pressure ([1]; 323 K, Metastable liquid): 229.7 ± 8.9 J/K/mol | molar heat capacity at constant pressure ([1]; 333 K, Metastable liquid): 231.2 ± 9 J/K/mol | molar heat capacity at constant pressure ([1]; 343 K, Liquid): 234 ± 9.1 J/K/mol | molar heat capacity at constant pressure ([1]; 353 K, Liquid): 237.1 ± 9.2 J/K/mol | molar heat capacity at constant pressure ([1]; 363 K, Liquid): 240.2 ± 9.3 J/K/mol | Molar enthalpy of transition or fusion [2]: 3.71 ± 0.141 kcal/mol | Normal melting temperature [3]: 63.0 ± 0.4 °C | Glass transition temperature [3]: -29 ± 2 °C

Compound: Nc1cccc2ccccc12 [1-naphthalenamine]
Molar enthalpy of transition or fusion [2]: 3.46 ± 0.11 kcal/mol | Normal melting temperature [3]: 48.2 ± 0.4 °C

The next lines start with results.

Molar enthalpy of transition or fusion [2]: 5.35 ± 0.139 kcal/mol | Normal melting temperature [3]: 121.2 ± 0.4 °C
Compound: Oc1ccc2ccccc2c1 [2-hydroxynaphthalene]

Molar enthalpy of transition or fusion [2]: 5.23 ± 0.12 kcal/mol | Normal melting temperature [3]: 94.8 ± 0.4 °C
Compound: Oc1cccc2ccccc12 [1-naphthol]

molar heat capacity at constant pressure ([1]; 218 K, Glass): 131.4 ± 6.5 J/K/mol | molar heat capacity at constant pressure ([1]; 238 K, Glass): 147.4 ± 7.1 J/K/mol | molar heat capacity at constant pressure ([1]; 243 K, Crystal): 149.1 ± 6.1 J/K/mol | molar heat capacity at constant pressure ([1]; 258 K, Glass): 163.5 ± 7.7 J/K/mol | molar heat capacity at constant pressure ([1]; 263 K, Crystal): 161.4 ± 6.6 J/K/mol | molar heat capacity at constant pressure ([1]; 283 K, Crystal): 173.7 ± 7.1 J/K/mol | molar heat capacity at constant pressure ([1]; 303 K, Crystal): 186 ± 7.6 J/K/mol | molar heat capacity at constant pressure ([1]; 323 K, Metastable liquid): 311.2 ± 14 J/K/mol | molar heat capacity at constant pressure ([1]; 343 K, Metastable liquid): 315.6 ± 14 J/K/mol | molar heat capacity at constant pressure ([1]; 363 K, Metastable liquid): 319.9 ± 15 J/K/mol | molar heat capacity at constant pressure ([1]; 383 K, Crystal): 235.9 ± 9.1 J/K/mol | molar heat capacity at constant pressure ([1]; 383 K, Metastable liquid): 324.3 ± 15 J/K/mol | molar heat capacity at constant pressure ([1]; 403 K, Metastable liquid): 328.7 ± 15 J/K/mol | Molar enthalpy of transition or fusion [2]: 6.17 ± 0.186 kcal/mol | Normal melting temperature [3]: 137.1 ± 0.4 °C | Glass transition temperature [3]: 32 ± 2 °C
Compound: Oc1ccc2c(O)cccc2c1 [1,6-dihydroxynaphthalene]
molar heat capacity at constant pressure ([1]; 323 K, Crystal): 197.9 ± 7.7 J/K/mol and 198.4 ± 8 J/K/mol | molar heat capacity at constant pressure ([1]; 343 K, Crystal): 210.6 ± 8.2 J/K/mol and 210.7 ± 8.4 J/K/mol | molar heat capacity at constant pressure ([1]; 363 K, Crystal): 223.2 ± 8.6 J/K/mol and 223 ± 8.8 J/K/mol

Molar enthalpy of transition or fusion [2]: 2.81 ± 0.108 kcal/mol | Normal melting temperature [3]: 34.8 ± 0.4 °C
Compound: Cc1ccc(O)cc1 [4-methylphenol]
